# Laboratory results as given in patent US12194021B2, “Modified herbal compositions for neuromodulation” (University of Southern California, priority 2021, dated 2025).
# Marks after values point to notes of the source that are not given here.
# Experiments:
# GABAARs = assay: Whole-cell voltage-clamped recordings from hippocampal DGCs in slices (Itonic, mIPSCs); format: cell-based, rats; details: for GABAergic Itonic: basal Itonic 20 pA
# Source text: 2) Whole-Cell Patch-Clamp Recordings from Brain Slices. Transverse slices (400 lm) of dorsal hippocampus were obtained from wt and TG-SwDI mice (male, 20 months old) using a vibratome (VT 100; Technical Products International). Slices were perfused continuously with artificial CSF (ACSF) composed of the following (in mM): 125 NaCl, 2.5 KCl, 2 CaCl2, 2 MgCl2, 26 NaHCO3, and 10 D-glucose. The ACSF was bubbled continuously with 95% O2/5% CO2 to ensure adequate oxygenation of slices and a pH of 7.4 and kept at 34±0.5° C. for perfusion. TTX (0.5 μM), APV (40 μM), CNQX (10 μM), and CGP54626 (1 μM, GABABR antagonist) were added to ACSF to pharmacologically isolate GABAAR-mediated mIPSCs. Patch electrodes were filled with internal solution containing the following (in mM): 137 CsCl, 2 MgCl2, 1 CaCl2, 11 EGTA, 10 HEPES, and 3 ATP, pH adjusted to 7.30 with CsOH. Recordings targeted dentate gyms granule cells (DGCs) of hippocampal slices. Voltage-clamp whole-cell recording was performed using a patch clamp amplifier 3) EPM: All animals were tested anxiety levels on EPM. Animals were placed on the central area of the maze, tested for 5 min and video recorded. The following measures were scored: number of entries into open arms, closed arms, or center platform and time spent in each of these areas. Data were reported as % of number of entries in arms, % of time spent in different entries, and number of total entries.
# To evaluate whether DHM-Piperidine Complex (D-P) can still potentiate GABAARs, whole-cell voltage-clamped recordings from hippocampal DGCs in slices were performed to test D-P and compared with DHM effects on GABAergic tonic current (Itonic) and miniature inhibitory postsynaptic currents (mIPSCs). […] Compared with DHM enhancing GABAergic Itonic from 20 pA (basal Itonic)→28 pA→31 pA→52 pA→55 pA, D-P enhancing GABAergic Itonic from 20 pA (basal Itonic)→35 pA→42 pA →65 pA→70 pA (Table 1).
# [1] = Anecdotal test of effects on sleep
# Method: We did an Anecdotal Test of the Effects of DHM on Sleep. […] They were given combination-formula (Comb-D, 1 serving size), DHM (250 mg), or melatonin (10 mg). After a week, we started collecting their reported sleep duration.
# gephyrin = details: previously reported (Liang et al., 2014); cited from earlier work
# mice = assay: Elevated plus maze (EPM), anxiolytic effect of combination form; format: in vivo; details: 45 min after oral administration, comb 0.5, 1, 2 serving size, diazepam 2 mg/kg
# Method: Alternatively, the elevated plus maze for mice can consist of two opposing open (24×8 cm) and two enclosed arms (24×8×25 cm) connected by a central platform forming the shape of a plus sign. The dimensions of the central field which connects the open and closed arms are 8×8 cm. The plus maze was elevated to a height of 50 cm. Each mouse was immediately placed in the central square of the apparatus with the head facing one of the closed arms. Mice behavior during 5 min was observed and recorded by means of a video camera (Canon Digital, Japan), which was fixed to the wall above the elevated plus maze. In this test, the following parameters were detected and calculated: the number of entries (open arm entries and closed arm entries), % of open arm entries, and % of time spent in open arms.
# Anxiolytic effect evaluation of combination form (comb). A characteristic of the anxiolytic effects of comb (0.5, 1, and 2 serving size) was evaluated by elevated plus maze (EPM) tests (Table 3; FIG. 6). The EPM is considered an etiologically valid assessment of anxiolytic/anxiety in rodents because it uses natural stimuli (fear of a novel, brightly lit open space, and fear of balancing on a relatively narrow, raised platform) to determine anxiety-like behavior in animals. Anxiolytics are known to exert their pharmacological action by causing an increase in GABAergic neurotransmission in the brain.
# Statistical analysis: one-way ANOVA, followed by Holm-Sidak post hoc comparison. […] Data were expressed as the means ±SEM, (n=7/group) percentage of open arm entries or of time spent on open arms in mice given a 5-min test, 45 min after oral administration of comb (0.5, 1, 2 serving size), or vehicle.
smiles,measurement,setting,value
"O=C1c2c(O)cc(O)cc2O[C@H](c2cc(O)c(O)c(O)c2)[C@H]1O [DHM, dihydromyricetin, reference compound]","Itonic, percent in brackets (increase over basal)",GABAARs; 0.1 μM,(40%)*
same,mIPSCs (area potentiated),GABAARs; 0.1 μM,5.0%
same,GABAergic Itonic,GABAARs; 0.1 μM,28 pA
same,"Itonic, percent in brackets (increase over basal)",GABAARs; 0.3 μM,(55%)*
same,mIPSCs (area potentiated),GABAARs; 0.3 μM,13.3%*
same,GABAergic Itonic,GABAARs; 0.3 μM,31 pA
same,"Itonic, percent in brackets (increase over basal)",GABAARs; 1 μM,(160%)*
same,mIPSCs (area potentiated),GABAARs; 1 μM,58.3%*
same,GABAergic Itonic,GABAARs; 1 μM,52 pA
same,"Itonic, percent in brackets (increase over basal)",GABAARs; 10 μM,(175%)*
same,mIPSCs (area potentiated),GABAARs; 10 μM,53.3%*
same,GABAergic Itonic,GABAARs; 10 μM,55 pA
same,sleep duration (average),[1]; 250 mg oral daily,5.5±0.65
same,start of improvement of sleep,[1]; 250 mg oral daily,1 to 7 days
same,dependence after finishing three-month test,[1],without dependence
same,GABAergic inhibitory transmission / gephyrin in TG mouse models,gephyrin,restores impaired GABAergic inhibitory transmission
CN1C(=O)CN=C(c2ccccc2)c2cc(Cl)ccc21 [diazepam],number of closed arm entries,mice,little effect
same,total number of arm entries,mice,significantly increased
same,percentage of open arm entries,mice; p<0.01,significantly elevated
COc1ccc2[nH]cc(CCNC(C)=O)c2c1 [melatonin],complaints (discomfort),[1]; 10 mg oral daily,"dizziness on the second day, loss of energy, and other feelings of discomfort"
same,time to show improvement in sleep,[1]; 10 mg oral daily,took a month
same,sleep duration (average),"[1]; 10 mg oral daily, in 40% attendees",4.3 ± 0.9 h
same,dependence after finishing three-month test,[1],suffered withdrawal from the test
